pIC50: −log10 of the molar value. Read-outs that look alike come from different tables or passages of the source. Values belong to the compound of their own block, whether it stands above or below them.
What was measured:
[1] = biological target: enkephalinase (enkephalin dipeptidylcarboxypeptidase); test: Determination of enkephalinasic (enkephalin dipeptidylcarboxypeptidasic) activity and effect of inhibitors, striatal membrane fraction, 3H-leucine-enkephalin; assay type: biochemical, rats or mice; settings: 10 nM leucine-enkephalin 3H, 25° C., pH 7.4, 15 mn, read-out: 50% inhibitory concentration
Procedure: Determination of the "enkephalinasic" (enkephalin dipeptidylcarboxypeptidasic) activity and determination of the effect of inhibitors.
The enzyme preparation used is a membrane fraction from the striatum of rats or mice.
This fraction is obtained by homogenization at 4° C. in 20 volumes Tris-HCl buffer 0.05M (pH 7.4) followed by two successive centrifugations (1000 g×min. and 200,000 g×min.) at the end of which the sediment of the second centrifugation is retained. It is washed by re-suspension in 10 ml of the buffer followed by centrifugation (200,000 g×min) and the resulting sediment is in turn washed superficially to complete the removal of the soluble enzymes. The resulting membrane fraction is taken up into the buffer at 4° C., to obtain a suspension comprising about 1.5 mg proteins per ml.
An aliquot sample (50 μl) of the membrane suspension is then incubated in a final volume of 100 μl at 25° C. in the presence of 10 nM leucine-enkephalin ^3 H (39 Ci/mmole), previously purified by column chromatography over Porapak Q (100-120 mesh, Waters Assoc.) and […] puromycine, an aminopeptidase inhibitor. Incubation time is generally set at 15 mn. in order to determine the initial rate of the formation of tripeptide Tyr-Gly-Gly-^3 H characteristic of the enkephalin dipeptidylcarboxypeptidasic (enkephalinasic) activity.
Determination of the radioactivity of the tripeptide is effected by liquid scintillation spectrometry. […]

[2] = tested on: licking reflex of mice on a plate heated at 55° C.; test: Hot-plate test (55° C.): specific antalgic effect; assay type: in vivo; settings: intravenous; for ED50: Mus musculus, hot plate 55° C.
Procedure: (§1) Licking reflex of mice on a plate heated at 55° C. according to the method of Jacob. and co-workers (Arch. Int. Pharmacodyn. 122, 287-300, 1959: 133, 296-300, 1961).
(b) Specific antalgic effect

Tail of the mice = settings: for potentiation of D Ala2 Met Enkephalin: compound i.v. 100 mg/kg, D Ala2 Met Enkephalin 15 minutes later, ivt, 10 to 30γ/mouse; for specific antalgic effect (tail withdrawal): i.v. 100 mg/kg
blood-pressure = test: Hypotensive activity; assay type: in vivo, dogs; settings: Canis lupus familiaris; intravenous administration; read-out: lowest dosage producing a decrease of the blood-pressure
Text: enkephalin-potentiating activity, (LAUBIE M., SCHMITT H., VINCENT M., REMON D. Central cardiovascular effects of Morphinometric peptids in dogs. European Journal of Pharmacology, Vol. 46, 67-71, 1977).

[3] = tested on: licking reflex of mice on a plate heated at 55° C.; test: Hot-plate test (55° C.): potentiation of the antalgic effect of D Ala2 Met Enkephalin and Naloxone antagonism; assay type: in vivo; settings: for % Increase of the licking time with respect to the animals treated with D Ala2 Met Enkephalin (1): dosage 10 α/mouse; for Potentiation of the effect of a subactive dosage of D Ala2 Met Enkephalin: 0.3γ D Ala2 Met Enkephalin
Procedure: as §1
(a) Potentiation of the antalgic effect of D Ala2 Met Enkephalin
(α) By the intraventricular route (ivt)
(β) By the intravenous route

[4] = tested on: phenylbenzoquinone-induced pain; test: Phenylbenzoquinone or writhing test; assay type: in vivo; settings: 0.7 mg/kg i.v.; vs controls p<0.01
Text: 3--Phenylbenzoquinone or "writhing test" according to the method of SIEGMUND and co-workers (Proc. Soc. Expert. Biol. Med. 1957, 95, 729-731).

[5] = ivt, + D Ala2 Met Enkephalin 0.3 α/mouse

Compound: CC(=O)SCS[C@@H](Cc1ccccc1)C(=O)N[C@@H](CC(C)C)C(=O)O [Compound 33, N-[(S)-2-acetylthiomethylthio-3-phenyl-propionyl]-L.leucine]
- pIC50 [1]: 6.00

Compound: COC(=O)CNC(=O)C(CSC(C)=O)Cc1ccccc1 (racemic) [Compound 19, N-[(RS)-3-acetylthio-2-benzyl-propionyl]glycine methyl ester]
- ED50 [2]: 30 mg/kg
- antalgic effect in the hot (55° C.) plate test [2]: have an antalgic effect

Compound: O=C(O)CNC(=O)C(CS)Cc1ccccc1 (racemic) [Compound 20, N-[(R,S)-3-mercapto-2-benzyl-propionyl]glycine]
- pIC50 [1]: 8.30
- Increase reaction time (%) (Tail of the mice; 30 mg/kg i.v. + D Ala2 Met Enkephalin (15 γ ivt), 20 mn): 247%
- Increase reaction time (%) (Tail of the mice; 30 mg/kg i.v. + D Ala2 Met Enkephalin (15 γ ivt), 45 mn): 353%
- Increase reaction time (%) (Tail of the mice; 30 mg/kg i.v. + D Ala2 Met Enkephalin (15 γ ivt), 60 mn): 283%
- Increase reaction time (%) (Tail of the mice; 30 mg/kg i.v. + D Ala2 Met Enkephalin (15 γ ivt), 90 mn): 210%
- Increase reaction time (%) (Tail of the mice; 30 mg/kg i.v. + D Ala2 Met Enkephalin (15 γ ivt), 120 mn): 203%
- Increase reaction time (%) (Tail of the mice; 100 mg/kg i.v. + D Ala2 Met Enkephalin (15 γ ivt), 20 mn): 239%
- Increase reaction time (%) (Tail of the mice; 100 mg/kg i.v. + D Ala2 Met Enkephalin (15 γ ivt), 45 mn): 528%
- Increase reaction time (%) (Tail of the mice; 100 mg/kg i.v. + D Ala2 Met Enkephalin (15 γ ivt), 60 mn): 321%
- Increase reaction time (%) (Tail of the mice; 100 mg/kg i.v. + D Ala2 Met Enkephalin (15 γ ivt), 90 mn): 382%
- Increase reaction time (%) (Tail of the mice; 100 mg/kg i.v. + D Ala2 Met Enkephalin (15 γ ivt), 120 mn): 322%
- Increase reaction time (%) (Tail of the mice; 100 mg/kg i.v. alone, 20 mn): 59%
- Increase reaction time (%) (Tail of the mice; 100 mg/kg i.v. alone, 45 mn): 196%
- Increase reaction time (%) (Tail of the mice; 100 mg/kg i.v. alone, 60 mn): 150%
- Increase reaction time (%) (Tail of the mice; 100 mg/kg i.v. alone, 90 mn): 88%
- Increase reaction time (%) (Tail of the mice; 100 mg/kg i.v. alone, 120 mn): 85%
- potentiation of D Ala2 Met Enkephalin (Tail of the mice): potentiate most significantly
- specific antalgic effect (tail withdrawal) (Tail of the mice): exhibit a specific antalgic affect

Compound: CC(C)C[C@H](NC(=O)C(CS)Cc1ccccc1)C(=O)O (stereo partly drawn) [Compound 18, N[(R,S)3-mercapto-2-benzyl-propionyl]-L.leucine]
- minimal effective dose (blood-pressure): 0.3 mg/kg
- Increase reaction time (%) (Tail of the mice; 100 mg/kg i.v. + D Ala2 Met Enkephalin (30 γ ivt), 20 mn): 0%
- Increase reaction time (%) (Tail of the mice; 100 mg/kg i.v. + D Ala2 Met Enkephalin (30 γ ivt), 45 mn): 280%
- Increase reaction time (%) (Tail of the mice; 100 mg/kg i.v. + D Ala2 Met Enkephalin (30 γ ivt), 60 mn): 166%
- Increase reaction time (%) (Tail of the mice; 100 mg/kg i.v. + D Ala2 Met Enkephalin (30 γ ivt), 90 mn): 87%
- Increase reaction time (%) (Tail of the mice; 100 mg/kg i.v. + D Ala2 Met Enkephalin (30 γ ivt), 120 mn): 174%
- Increase reaction time (%) (Tail of the mice; 100 mg/kg i.v. alone, 20 mn): 38%
- Increase reaction time (%) (Tail of the mice; 100 mg/kg i.v. alone, 45 mn): 80%
- Increase reaction time (%) (Tail of the mice; 100 mg/kg i.v. alone, 60 mn): 120%
- Increase reaction time (%) (Tail of the mice; 100 mg/kg i.v. alone, 90 mn): 61%
- Increase reaction time (%) (Tail of the mice; 100 mg/kg i.v. alone, 120 mn): 90%
- potentiation of D Ala2 Met Enkephalin (Tail of the mice): potentiate most significantly
- specific antalgic effect (tail withdrawal) (Tail of the mice): exhibit a specific antalgic affect

Compound: C=CCN1CC[C@]23c4c5ccc(O)c4O[C@H]2C(=O)CC[C@@]3(O)[C@H]1C5 [Naloxone, reference compound]
- antagonism of the potentiated antalgic effect by Naloxone ([3]; ivt, compounds + D Ala2 Met Enkephalin): this effect is antagonized by Naloxone

Compound: CC(C)C[C@H](NC(=O)[C@H](Cc1ccccc1)SCCS)C(=O)O [Compound 35, N-[(S)-2-mercapto-ethylthio-3-phenyl-propionyl]-L.leucine]
- pIC50 [1]: 6.40
- increase of the licking time with respect to the animals treated with D Ala2 Met Enkephalin ([3]; compound i.v. 100 mg/kg, D Ala2 Met Enkephalin 0.3γ intraventricular): 100%
- % Increase of the licking time with respect to the animals treated with D Ala2 Met Enkephalin (1) [3, 5]: 240%
- % Increase of the licking time with respect to the animals treated with D Ala2 Met Enkephalin (1) ([3]; ivt, + D Ala2 Met Enkephalin 0.3 α/mouse + Naloxone 10 mg/kg s.c.): 18%
- Potentiation of the effect of a subactive dosage of D Ala2 Met Enkephalin ([3]; ivt): significantly potentiated (p≤0.05)

Compound: CC(C)C[C@H](NC(=O)[C@H](Cc1ccccc1)NCC(=O)O)C(=O)O [Compound 2, N-(carboxy-methyl)L.phenylalanine-L.leucine]
- pIC50 [1]: 5.82
- % Increase of the licking time with respect to the animals treated with D Ala2 Met Enkephalin (1) [3, 5]: 274%
- Potentiation of the effect of a subactive dosage of D Ala2 Met Enkephalin ([3]; ivt): significantly potentiated (p≤0.05)

Compound: D Ala2 Met Enkephalin [reference compound]
- activity of D Ala2 Met Enkephalin per se ([3]; 0.3 α/mouse, ivt): inactive per se

Compound: CC(C)C[C@H](NC(=O)[C@@H](S)Cc1ccccc1)C(=O)O [Compound 28, N-[(S)-2-mercapto-3-phenyl-propionyl]-L.leucine]
- % Increase of the licking time with respect to the animals treated with D Ala2 Met Enkephalin (1) [3, 5]: 400%
- Potentiation of the effect of a subactive dosage of D Ala2 Met Enkephalin ([3]; ivt): significantly potentiated (p≤0.05)

Compound: COC(=O)[C@H](CC(C)C)NC(=O)[C@H](Cc1ccccc1)SC(C)=O [Compound 29, N-[(S)-2-acetylthio-3-phenyl-propionyl]-L.leucine methyl ester]
- % Increase of the licking time with respect to the animals treated with D Ala2 Met Enkephalin (1) [3, 5]: 207%
- Potentiation of the effect of a subactive dosage of D Ala2 Met Enkephalin ([3]; ivt): significantly potentiated (p≤0.05)

Now from value to compound, other results behind:

- pIC50 [1]: 6.46
Compound: CC(=O)SCC(Cc1ccccc1)C(=O)NCC(=O)OCC(F)(F)F (stereo not shown) [Compound 55, N-[3-Acetylthio-2-benzylpropanoyl]-glycine-2,2,2-trifluoroethyl ester]

- pIC50 [1]: 7.52
Compound: O=C(CNC(=O)C(CS)Cc1ccccc1)NCc1ccccc1 (stereo not shown) [Compound 60, N-[3-Mercapto-2-benzyl-propanoyl]glycine benzylamide]

- pIC50 [1]: 7.00
Compound: C[C@H](NC(=O)[C@@H](S)Cc1ccccc1)C(=O)O [Compound 32, N-[(S)-2-mercapto-3-phenyl-propionyl]-L.alanine]

- pIC50 [1]: 6.40
Compound: CC(=O)SCC(Cc1ccccc1)C(=O)NCC(=O)NCc1ccccc1 (stereo not shown) [Compound 56, N-[3-Acetylthio-2-benzylpropanoyl]glycine benzylamide]

- pIC50 [1]: 6.59
Compound: CC(=O)SCC(Cc1ccccc1)C(=O)NCC(=O)OCc1ccc(F)cc1 (stereo not shown) [Compound 54, N-[3-Acetylthio-2-benzylpropanoyl]glycine(p.fluoro)-benzylester]
- ED50 [2]: 3 mg/kg
- antalgic effect in the hot (55° C.) plate test [2]: have an antalgic effect
- protection from phenylbenzoquinone-induced pain [4]: protect the treated animals from phenylbenzoquinone-induced pain, with a significant difference with respect to the controls, p<0.01

- pIC50 [1]: 8.40
Compound: O=C(N[C@@H](COCc1ccccc1)C(=O)O)C(CS)Cc1ccccc1 (stereo partly drawn) [Compound 24, O-Benzyl-N-[(R,S)-3-mercapto-2-benzyl-propionyl]L.serine]
- minimal effective dose (blood-pressure): 0.3 mg/kg

- pIC50 [1]: 5.30
Compound: CC(C)C[C@H](NC(=O)[C@H](Cc1ccccc1)SC(=O)c1ccccc1)C(=O)O [Compound 27, N-[(S)-2-benzoylthio-3-phenyl-propionyl]-L.leucine]

- pIC50 [1]: 4.70
Compound: CC(C)C[C@H](NC(=O)[C@@H](Cc1ccccc1)NCC(=O)O)C(=O)O [Compound 5, N-(carboxy-methyl)-D.phenylalanine-L.leucine]

- pIC50 [1]: 8.11
Compound: O=C(CNC(=O)C(CS)Cc1ccccc1)OCc1ccccc1 (stereo not shown) [Compound 57, N-[3-Mercapto-2-benzyl-propanoyl]glycine benzyl ester]

— patent publication US4513009A, “Aminoacid derivatives and their therapeutic applications” (priority 1980, dated 1985)
